The target of assay [1] is YopH from Yersinia enterocolitica (Yersinia enterocolitica, UniProt P15273). As to the kind of experiment: biochemical.
The target in a further assay is T1, Human recombinant CD45 (Homo sapiens, UniProt P08575).
T1 construct: purchased Sigma-Aldrich
T1 sequence (P08575 609-1306 limits assumed): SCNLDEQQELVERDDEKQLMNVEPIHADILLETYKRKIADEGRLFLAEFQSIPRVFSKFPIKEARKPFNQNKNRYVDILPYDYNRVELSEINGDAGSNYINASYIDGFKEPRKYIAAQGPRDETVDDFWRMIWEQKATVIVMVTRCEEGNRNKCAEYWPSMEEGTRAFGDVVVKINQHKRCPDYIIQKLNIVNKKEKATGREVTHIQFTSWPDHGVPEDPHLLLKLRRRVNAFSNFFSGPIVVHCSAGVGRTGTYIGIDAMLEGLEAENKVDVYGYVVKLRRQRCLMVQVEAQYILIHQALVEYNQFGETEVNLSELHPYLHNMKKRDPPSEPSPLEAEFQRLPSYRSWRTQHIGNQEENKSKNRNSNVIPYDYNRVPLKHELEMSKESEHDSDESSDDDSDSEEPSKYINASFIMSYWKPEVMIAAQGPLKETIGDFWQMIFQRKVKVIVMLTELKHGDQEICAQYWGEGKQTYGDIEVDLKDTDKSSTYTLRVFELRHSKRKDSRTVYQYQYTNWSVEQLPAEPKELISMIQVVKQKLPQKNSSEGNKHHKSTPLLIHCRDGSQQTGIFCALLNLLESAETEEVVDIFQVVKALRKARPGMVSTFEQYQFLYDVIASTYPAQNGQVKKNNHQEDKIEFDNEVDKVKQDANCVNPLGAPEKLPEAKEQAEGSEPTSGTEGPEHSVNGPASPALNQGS
As to the kind of experiment: biochemical.

For assay [2], the target named is YopH protein tyrosine phosphatase from Yersinia pestis (Yersinia pestis, UniProt O68720). As to the kind of experiment: biochemical.
For assay [3], the target named is T2, YopH (Yersinia enterocolitica, UniProt P15273). In kind it is biochemical.
The target in a further assay is YopH Y. enterocolitica (Yersinia enterocolitica, UniProt P15273). Type of assay: biochemical.
In assay [4] the target is T2, YopH. Type of assay: biochemical. The source holds these as a separate data set.

Where two headings read alike, the source gives them in different places.

T2 sequence (P15273 whole entry, looked up): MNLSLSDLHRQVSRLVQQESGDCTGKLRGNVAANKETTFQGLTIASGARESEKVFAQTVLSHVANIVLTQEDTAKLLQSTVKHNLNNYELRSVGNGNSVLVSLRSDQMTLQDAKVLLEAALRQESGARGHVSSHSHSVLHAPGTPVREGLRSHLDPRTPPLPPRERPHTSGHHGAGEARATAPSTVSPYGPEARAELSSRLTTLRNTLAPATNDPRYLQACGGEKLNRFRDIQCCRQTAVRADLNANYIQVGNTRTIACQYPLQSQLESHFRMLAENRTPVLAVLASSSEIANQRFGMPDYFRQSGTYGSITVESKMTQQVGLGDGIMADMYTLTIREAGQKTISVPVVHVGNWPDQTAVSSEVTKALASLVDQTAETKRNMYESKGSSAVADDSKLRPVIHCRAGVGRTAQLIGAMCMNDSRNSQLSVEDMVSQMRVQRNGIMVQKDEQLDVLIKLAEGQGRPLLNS
Sequence of YopH from Yersinia enterocolitica (P15273 whole entry, looked up): as above
Sequence of YopH protein tyrosine phosphatase from Yersinia pestis (O68720 1-468): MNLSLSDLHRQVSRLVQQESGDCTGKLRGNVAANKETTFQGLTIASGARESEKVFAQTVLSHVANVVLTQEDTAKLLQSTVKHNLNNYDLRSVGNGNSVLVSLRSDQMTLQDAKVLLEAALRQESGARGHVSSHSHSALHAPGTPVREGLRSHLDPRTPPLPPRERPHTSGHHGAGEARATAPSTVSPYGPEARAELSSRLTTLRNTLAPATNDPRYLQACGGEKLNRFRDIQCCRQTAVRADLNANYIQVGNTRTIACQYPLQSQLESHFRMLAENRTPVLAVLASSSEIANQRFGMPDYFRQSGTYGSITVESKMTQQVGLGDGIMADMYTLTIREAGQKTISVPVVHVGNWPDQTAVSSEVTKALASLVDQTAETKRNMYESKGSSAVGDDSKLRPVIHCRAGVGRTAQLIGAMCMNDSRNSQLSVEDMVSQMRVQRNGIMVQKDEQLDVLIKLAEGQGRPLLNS
Sequence of YopH Y. enterocolitica (P15273 whole entry, looked up): as the sequence (P15273 whole entry, looked up) above

With `CCCCCCCC(=O)OO` [peroctanoic acid], the IC50 in assay [1] (read-out: IC50 value, YopH Y.entorocolitica inhibition) is 39 nM; on Human recombinant CD45 (read-out: IC50 value, CD45 inhibition) it was 25 nM; in assay [2] (read-out: IC50 value, YopH Y.pestis inhibition), 41 nM.

Regarding `O=C(O)C1=CC(=C(c2ccc(O)c(C(=O)O)c2)c2ccc(O)c(C(=O)O)c2)C=CC1=O` [ATA, aurintricarboxylic acid], half-maximal inhibition in assay [1] (IC50) was put at 100 nM. For the same molecule, at Human recombinant CD45, the “Effect of catalase pretreatment on ATA induced CD45 inactivation” value is “almost completely protected” and the IC50 was 200 nM. Also, the IC50 in assay [2] worked out at 10 nM. For the same molecule, the “Effect of catalase pretreatment on ATA induced YopH inactivation” value at YopH [3] is on record as “almost completely protected”. The “Reversibility of ATA induced inhibition of YopH” value at YopH Y. enterocolitica is recorded as “completely reversed”. Besides, on YopH [4], the “Effect of catalase on ATA induced decrease of thiol adducts” value is listed as “completely prevented” and the “Reduction of thiol-NBD adducts compared to control” value was “over 50%”.

As usually defined, the IC50 is the concentration that inhibits the measured activity by half.

The record behind these values is article PMC4621896 (Oncotarget, 2015).
